Laboratory results: publication PMC7340540, “Crystal structures and calorimetry reveal catalytically relevant binding mode of coproporphyrin and coproheme in coproporphyrin ferrochelatase” (The FEBS journal, 2019)

Biological target: T1, LmCpfC (Listeria monocytogenes, UniProt Q8Y565)
T1 construct: gene cpfC; full length in pET21a(+) (BamHI/XhoI), C-terminal 6xHis-tag kept, vector N-terminal residues; E. coli BL21 Gold; 37 kDa theoretical, 38 kDa by MALS; monomer
T1 sequence (Q8Y565 1-309): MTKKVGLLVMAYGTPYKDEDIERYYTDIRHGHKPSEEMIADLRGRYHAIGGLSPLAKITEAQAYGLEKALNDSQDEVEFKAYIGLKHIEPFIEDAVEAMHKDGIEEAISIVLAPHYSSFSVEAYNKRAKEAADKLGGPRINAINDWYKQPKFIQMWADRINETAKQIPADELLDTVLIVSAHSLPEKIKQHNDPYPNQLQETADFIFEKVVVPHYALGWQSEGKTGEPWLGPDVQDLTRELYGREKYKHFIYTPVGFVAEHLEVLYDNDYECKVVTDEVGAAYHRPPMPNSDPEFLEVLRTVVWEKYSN
Assay: stopped-flow UV-vis, […] nm, KD = koff/kon
Assay type: binding

## CC1=C(CCC(=O)O)c2cc3nc(cc4[nH]c(cc5[nH]c(cc1n2)c(C)c5CCC(=O)O)c(CCC(=O)O)c4C)C(CCC(=O)O)=C3C [coproporphyrin III]
  Kd: 2000 nM
